Reference: patent US5789440A, “5,6-dihydropyrone derivatives as protease inhibitors and antiviral agents” (Warner-Lambert Company, priority 1994, dated 1998)

Target: T1, HIV-1 Protease (Human immunodeficiency virus type 1 group M subtype B, UniProt P04585)
T1 construct: HIV-1 Protease; purchased Bachem Bioscience Inc
Assay: HIV protease inhibition (undecapeptide substrate cleavage, HPLC)
Assay type: biochemical
Settings: 37° C., 5 min, 40 μM substrate, pH 4.7, 2% DMSO, read-out: 50% INHIBITION CONCENTRATION
Procedure: 1.0 mM dithiothreitol (DTT) was prepared fresh daily in 0.1% polyethylene glycol (mw 8000) 80 mM NaOAc, 160 mM NaCl, 1.0 mM EDTA, and brought to pH 4.7 with HCl.
The enzyme is obtained from Bachem Bioscience Inc. The undiluted enzyme is thawed from -80° C. and diluted 50-fold with DTT buffer. The solution is always kept at 0° C. on ice water and used in the experiment within 20 minutes after thawing.
Substrate III from Bachem Bioscience Inc. is the undecapeptide H-His-Lys-Ala-Arg-Val-Leu-p-Nitrophenylalanine-Glu-Ala-Norleucine-Ser-NH2 (>97% purity). A 200 μM stock solution in DTT buffer is prepared and stored on ice. Substrate solution is prepared fresh daily.
10 mM inhibitor (I) in dimethyl sulfoxide (DMSO) is diluted to 200 μM with DTT buffer. From the 200 μM stock solution is made a 10 μM stock solution with 2% DMSO in DTT buffer. The two inhibitor solutions are used to make final [I] =100, 50, 20, 10, 5, 2, 1, 0.5 and 0 μM with 2% DMSO in DTT buffer in each reaction well (total inhibitor volume of 50 μl).
To each reaction well is added 20 μl of substrate (final concentration of 40 μM), 50 μl of inhibitor (at a concentration such that final dilution will produce the test concentration) and 20 μl of DTT buffer. The reaction plate (96 wells) is incubated at 37° C. for at least 5 minutes.
10 μl of the diluted protease is added to the reaction well while the reaction plate is shaking. Once shaken for 10 seconds, the plate is returned to the heating block at 37° C. (final reaction volume 100 μl.)
The reaction is incubated for 5 minutes at 37° C. The reaction is stopped by placing the reaction plate on the shaker and adding 20 μl of 10% trifluoroacetic acid (TFA) and shaking for 10 seconds. The amount of proteolysis is then determined by separation of noncleaved substrate and two cleaved products with reverse-phase HPLC, while measuring absorbance at 220 nm to determine the relative peak areas of the three components. The relative peak areas are used to calculate % conversion to product as a function of inhibitor concentration. The data are plotted as % Control (the ratio of % conversion in the presence and absence of inhibitor×100) versus inhibitor concentration and fitted with the equation Y=100/1+(X/IC50)^A, where IC50 is the inhibitor concentration at 50% inhibition and A is the slope of the inhibition curve.

Structure (SMILES)	IC50
CC(C)CCC1(c2ccccc2)CC(O)=C(SCc2ccccc2)C(=O)O1 (racemic) [Example 35, 5,6-Dihydro-4-hydroxy-6-(3-methylbutyl)-6-phenyl-3-[(phenylmethyl)thio]-2H-pyran-2-one]	120 nM
CC(C)CC1(c2ccccc2)CC(O)=C(SCc2ccccc2)C(=O)O1 (racemic) [Example 5, 5,6-Dihydro-4-hydroxy-6-(2-methylpropyl)-6-phenyl-3-[(phenylmethyl)thio]-2H-pyran-2-one]	400 nM
O=C1OC2(CCCc3ccccc32)CC(O)=C1SCc1ccccc1 (racemic) [Example 52, 3,4-Dihydro-4'-hydroxy-5'-[(phenylmethyl)thio]-spiro[naphthalene-1(2H),2'-[2H]pyran]-6'(3'H)-one]	2000 nM
CCCCC1(c2ccccc2)CC(O)=C(SCc2ccccc2)C(=O)O1 (racemic) [Example 29, 6-Butyl-5,6-dihydro-4-hydroxy-6-phenyl-3-[(phenylmethyl)thio]-2H-pyran-2-one]	260 nM
O=C1OC(c2ccccc2)CC(O)=C1SCCc1ccccc1 (racemic) [Example 2, 5,6-Dihydro-4-hydroxy-6-phenyl-3-[(2-phenylethyl)thio]-2H-pyran-2-one]	1900 nM
Cc1cccc(SC2=C(O)CC(c3ccccc3)(c3ccccc3)OC2=O)c1 [Example 70, 5,6-Dihydro-4-hydroxy-3-(3-methylphenylthio)-6,6-diphenyl-2H-pyran-2-one]	110 nM
O=C1OC(CCc2ccccc2)(c2ccccc2)CC(O)=C1SCc1ccccc1 (racemic) [Example 39, 5,6-Dihydro-4-hydroxy-6-phenyl-6-(2-phenylethyl)-3-[(phenylmethyl)thio]-2H-pyran-2-one]	50 nM
O=C1OC(CCc2ccc(Cl)c(Cl)c2)(c2ccccc2)CC(O)=C1SCc1ccccc1 (racemic) [Example 44, 6-[2-(3,4-Dichlorophenyl)ethyl]-5,6-dihydro-4-hydroxy-6-phenyl-3-[(phenylmethyl)thio]-2H-pyran-2-one]	320 nM
O=C1OC(CCc2ccccc2)(c2ccccc2)CC(O)=C1SCc1ccccc1-c1ccccc1 (racemic) [Example 92, 3-(Biphenyl-2-ylmethylthio)-5,6-dihydro-4-hydroxy-6-phenyl-6-(2-phenylethyl)-2H-pyran-2-one]	270 nM
O=C1OC(CCc2ccccc2)(c2ccccc2)CC(O)=C1Sc1ccccc1 (racemic) [Example 71, 5,6-Dihydro-4-hydroxy-6-phenyl-6-(2-phenylethyl)-3-phenylthio-2H-pyran-2-one]	100 nM
O=C1OC(c2ccc(OCc3ccccc3)cc2)CC(O)=C1SCCc1ccccc1 (stereo not shown) [Example 14]	2500 nM
O=C1OC(c2ccccc2)(c2ccccc2)CC(O)=C1SCc1ccccc1 [Example 37, 5,6-Dihydro-4-hydroxy-6,6-diphenyl-3-[(phenylmethyl)thio]-2H-pyran-2-one]	260 nM
CC(C)CCC1(c2ccccc2)CC(O)=C(Sc2ccccc2C(C)C)C(=O)O1 (racemic) [Example 75, 5,6-Dihydro-4-hydroxy-6-(3-methylbutyl)-6-phenyl-3-(2-isopropyl-phenylthio)-2H-pyran-2-one]	28 nM
O=C1OC(CC2CCCC2)(c2ccccc2)CC(O)=C1SCc1ccccc1 (racemic) [Example 50, 6-Cyclopentylmethyl-5,6-dihydro-4-hydroxy-6-phenyl-3-[(phenylmethyl)thio]-2H-pyran-2-one]	88 nM
CCCCC1(c2ccc(-c3ccccc3)cc2)CC(O)=C(SCCc2ccccc2)C(=O)O1 (racemic) [Example 22, 6-[1,1'-Biphenyl]-4-yl-6-butyl-5,6-dihydro-4-hydroxy-3-[(2-phenylethyl)thio]-2H-pyran-2-one]	1100 nM
O=C(O)CCCCC1(c2ccccc2)CC(O)=C(SCCc2ccccc2)C(=O)O1 (racemic) [Example 56, 5-(3,6-Dihydro-4-hydroxy-6-oxo-2-phenyl-5-[(2-phenylethyl)thio]-2H-pyran-2-yl)pentanoic acid]	5 nM
